# Laboratory results from EP0300675A2, “Method for the improvement of cyclosporine therapy” (MERCK FROSST CANADA INC., priority 1987, dated 1989).
# System: cyclosporine A-induced nephrotoxicity
# Assay: cyclosporine A-induced nephrotoxicity (rise in serum BUN) in SHR rats dosed for 14 days
# Type: in vivo, female spontaneously hypertensive (SHR) rats
# Conditions: for Serum BUN ± S.E.M.: 14 days; for inhibition of the increase in serum BUN: 3 mg/kg/day in saline
# Procedure: All experiments were carried out using female spontaneously hypertensive (SHR) rats, weight range 160-200 gm, obtained from Taconic Farms. […] Four thromboxane antagonists have been studied so far. […] Thromboxane antagonists have been administered as the sodium salt dissolved in saline, the sodium salt dissolved in 0.1% NaHCO₃ or the free acid suspended in 1% Methocel.
# [1] = 3 mg/kg/day in saline with cyclosporine A 25 mg/kg/day, Combined experiments
# [2] = 3 mg/kg/day in saline with cyclosporine A 25 mg/kg/day, Experiment 1
# [3] = second experiment combined together
smiles,measurement,setting,value
"O=C(O)CC1CCCc2c1n(Cc1ccc(Cl)cc1)c1c(F)cc(F)cc21 (single isomer, unassigned; (-)) [Compound 3, (-)-9-(p-Chlorobenzyl)-6,8-difluoro-1,2,3,4-tetrahydrocarbazol-1-yl acetic acid]",Serum BUN ± S.E.M.,"3 mg/kg/day, suspension of free acid in 1% Methocel, with cyclosporine A 25 mg/kg/day, Table 4 (two separate experiments)",23.2 ± 0.9 mg/100 ml
same,Serum BUN ± S.E.M.,"10 mg/kg/day, suspension of free acid in 1% Methocel, with cyclosporine A 25 mg/kg/day, Table 4 (two separate experiments)",24.0 ± 1.1 mg/100 ml
same,inhibition of the rise in serum BUN,"both doses (3 and 10 mg/kg/day), suspension of the free acid, two separate experiments",significant inhibition
"CS(=O)(=O)c1ccc(Cn2c3c(c4cc(F)cc(F)c42)CCCC3CC(=O)O)cc1 (single isomer, unassigned; (-)) [Compound 4, (-)-9-(p-Methylsulfonylbenzyl)-6,8-difluoro-1,2,3,4-tetrahydrocarbazol-1-yl acetic acid]",Serum BUN ± S.E.M.,"3 mg/kg/day, suspension of free acid in 1% Methocel, with cyclosporine A 25 mg/kg/day, Table 5",23.5 ± 1.0 mg/100 ml
same,Serum BUN ± S.E.M.,"10 mg/kg/day, suspension of free acid in 1% Methocel, with cyclosporine A 25 mg/kg/day, Table 5",21.9 ± 0.8 mg/100 ml
same,effect on cyclosporine A-induced rises in serum BUN,"both 3 and 10 mg/kg/day, suspension of the free acid",effective
"Cc1c(CC(C)(C)C(=O)O)n(Cc2ccc(Cl)cc2)c2ccc(F)cc12 [Compound 1, 3-(1-(4-Chlorobenzyl)-3-methyl-5-fluoroindol-2 yl)-2,2-dimethyl propanoic acid]",inhibition of the increase in serum BUN induced by cyclosporine A,3 mg/kg/day in 0.1% NaHCO₃,No significant inhibition
same,Serum BUN ± S.E.M.,3 mg/kg/day in 0.1% NaHCO₃ with cyclosporine A 25 mg/kg/day,28.3 ± 2.2 mg/100ml
same,Serum BUN ± S.E.M.,[1],28.0 ± 1.6 mg/100 ml
same,Serum BUN ± S.E.M.,[2],24.5 ± 1.1 mg/100 ml
same,inhibition of the increase in serum BUN,one experiment (Table 2),significant inhibition
same,inhibition of the increase in serum BUN,[3],no significant inhibition
same,Serum BUN ± S.E.M.,"10 mg/kg/day in 0.1% NaHCO₃ with cyclosporine A 25 mg/kg/day, 2 separate experiments",23.4 ± 0.9 mg/100ml
same,inhibition of the increase in serum BUN induced by cyclosporine A,"10 mg/kg/day in 0.1% NaHCO₃, mean of two separate experiments, p < 0.05",significant inhibition
"O=C(O)CC1CCCc2c1n(Cc1ccc(Cl)cc1)c1ccc(F)cc21 (racemic) [Compound 2, 9-(p-Chlorobenzyl)-6-fluoro-1,2,3,4-tetrahydrocarbazol-1-yl acetic acid]",Serum BUN ± S.E.M.,[1],30.3 ± 2.0 mg/100 ml
same,Serum BUN ± S.E.M.,[2],24.6 ± 1.7 mg/100 ml
same,inhibition of the increase in serum BUN,one experiment (Table 2),significant inhibition
same,inhibition of the increase in serum BUN,[3],no significant inhibition
